Reference: patent US20220332758A1, “PEPTIDE-BASED COMPOSITIONS AND METHODS FOR TREATING ALZHEIMER'S DISEASE” (Board of Regents, The Universityof Texas System, priority 2019, published 2022)
Entries after “also recorded” stand apart in the source; their conditions may differ.

Columns and labels:
[1] = biological target: T1, proteasome activity in W^1118 flies (Drosophila melanogaster, UniProt P40301+Q9XZJ4); assay: Proteasome activity in flies fed the compounds; format: in vivo; settings: fed for 10 days
T1 construct: from tissue
Protocol: Fly Lines and Strain Maintenance. UAS-ProsBeta5 (Staudt, N. et al. PLoS Genet 1, e55, doi:10.1371/journal.pgen.0010055 (2005)) and Elav-GS-GAL4; UAS-hAPP; UAS-hBACE1 (56756) stocks were obtained from the Bloomington Drosophila Stock Center (NIH P40OD018537). The lines were maintained on agar-cornmeal-dextrose-yeast growth media (Ren, C., Finkel, S. E. & Tower, J. Exp Gerontol 44, 228-235, doi:10.1016/j.exger.2008.10.002 (2009)) in a humidified 24° C. incubator with 12:12-hour light:dark cycle. The crosses were set up with female virgins of the respective GAL4 driver line and male UAS-ProsBeta5 or W^1118 flies. Progeny were collected within 48 hours of eclosion and allowed to mate on 10% sugar/yeast (SY10) media (Skorupa, D. A., et al. Aging Cell 7, 478-490, doi:10.1111/j.1474-9726.2008.00400.x (2008)) for another 48 hours. After this period, females were separated and sorted into sets of 25 flies per vial containing SY10 media supplemented either with 400 μM mifepristone (RU486) or ethanol vehicle, mixed directly into the food. 8 μM Blue Dye #1 was added to food containing RU486 for the purpose of identification. Carbon dioxide was used to briefly anesthetize flies for sorting. Flies were moved to vials of fresh media every two to three days.
Plate-based proteasome activity assay. […]

human 26S proteasome = biological target: T2, human 26S proteasome (Homo sapiens, UniProt P25787+P60900); assay: Chymotrypsin-like activity of purified human 26S proteasome, Suc-LLVY-MCA substrate; format: biochemical; settings: in vitro
T2 construct: purchased Boston Biochemicals (Boston Biochem)

[2] = biological target: T3, α face pockets of the 20S core proteasome (Homo sapiens, UniProt P25787+P60900); assay: Competition of TAT peptides with Rpt C-terminal tail peptides for α face pockets (ChT-L activity of 20S); format: biochemical; settings: for enhanced activation with Rpt tails: 1 μM Rpt peptide; for competition with Rpt tail peptides: 1 μM Rpt peptide added before the TAT peptide
T3 construct: purified from erythrocytes; purchased Boston Biochem, Inc. or Enzo Life Sciences, Inc; host or cells: human erythrocytes
From the text: As mentioned herein, the binding pockets on the α face accept “anchors” from natural protein ligands of the 20S core. […] The 10-residue Rpt-derived C-terminal “tail” peptides (“Rpt peptides”) can be used as competitors with the Rpt subunits or with small allosteric ligands. Importantly, the Rpt peptides interject between the subunits with their C-termini, whereas TAT peptides, according to the modeling, use their N-termini for this purpose. To test the specificity of interactions between TAT compounds and the α face, competition experiments were performed. The 20S core was challenged with selected TAT compounds after treatment with Rpt peptides. Peptides of Rpt2 ([…]; SEQ ID NO: 10), Rpt3 ([…]; SEQ ID NO: 11), Rpt5 ([…]; SEQ ID NO: 12) and Rpt6 ([…]; SEQ ID NO: 13) subunits were selected, docking in α3/α4, α1/α2, α5/α6 and α2/α3 pockets, respectively. Tails of Rpt2, 3, and 5 display the canonical HbYX motif, whereas the LeuTrpLys C-terminus of Rpt6 may be considered “pseudo-HbYX”, with a bulky Trp replacing Tyr. Results of the competition experiments are presented as radar plots in FIG. 15. […] This pocket also emerged as the major binding site for (1) and (8). However, these compounds likely weakly competed with the Rpt2 tail for binding to the α3/α4 pocket as well. The α3/α4 pocket seemed to be favored by (6). […] These complex patterns point at the importance of allosteric effects between the α face ligands, the gate and the catalytic chamber.
Determination of Proteasome Activity. Human housekeeping core (20S) proteasome purified from erythrocytes was purchased from Boston Biochem, Inc. (Cambridge, Mass.) or from Enzo Life Sciences, Inc. (Farmingdale, N.Y.). Multiple batches of the proteasomes were used and performed reproducibly. The stock proteasome was diluted to 0.2 mg/mL working solution in “dilution buffer” (50 mM Tris/HCl, pH 8, 20% glycerol). The following model peptide substrates, releasing fluorescent 7-amino-4-methylcoumarin (AMC) reporter group after cleavage, were used: succinyl-LeuLeuValTyr-AMC (SEQ ID NO: 14) (for the ChT-L peptidase; SucLLVY-AMC; Bachem Bioscience Inc., Philadelphia, Pa.), butoxycarbonyl-LeuArgArg-AMC (T-L; Bachem Bioscience Inc., Philadelphia, Pa.) and carbobenzoxy-LeuLeuGlu-AMC (PGPH; Enzo Life Sciences Inc., Farmingdale, N.Y.). The substrates were used at concentration of 50 μM (ChT-L) or 100 μM (T-L, PGPH). Free AMC (Sigma-Aldrich, St. Louis, Mo.) was used as the standard. The C-terminal peptides derived from Rpt2, Rpt3, Rpt5 and Rpt6 were synthesized (standard solid-phase peptide chemistry) and purified to at least 98% purity by GenScript (Piscataway, N.J.). The TAT peptides, Rpt peptides (except Rpt6) and the peptide substrates were dissolved in anhydrous dimethylsulfoxide (DMSO; Sigma-Aldrich, St. Louis, Mo.) and such stock solutions were stored at −20° C. The total concentration of DMSO in final reaction mixtures never exceeded 3% (vol/vol). The Trp (tryptophan)-containing Rpt6 peptide was dissolved in ultrapure water and stored at −20° C., protected from light. The reaction was carried out in 96-well plates, in 100 μL of reaction mixture that consisted of 45 mM Tris/HCl, pH 8, 100 mM KCl, 1 mM EDTA (reaction buffer) and a fluorogenic peptide substrate, to which 200 ng (nearly […]) of proteasome were added. The addition of KCl/EDTA (ethylenediaminetetraacetic acid) to reaction buffer assured latency of the core proteasome. The proteasome was preincubated with a substrate for 10 min at room temperature, then 1 μL of DMSO or a desired concentration of a TAT peptide in 1 μL of DMSO were added. After mixing, the plate was transferred to a Fluoroskan Ascent plate reader (Thermo Fisher Scientific Inc., Waltham, Mass.) for 1 h (37° C.), with fluorescence readouts once per minute. To test the competition with Rpt derived peptides, the Rpt peptide (1 μM) was added before the TAT peptide to the reaction mixture. […]

T1 sequence (Q9XZJ4 whole entry): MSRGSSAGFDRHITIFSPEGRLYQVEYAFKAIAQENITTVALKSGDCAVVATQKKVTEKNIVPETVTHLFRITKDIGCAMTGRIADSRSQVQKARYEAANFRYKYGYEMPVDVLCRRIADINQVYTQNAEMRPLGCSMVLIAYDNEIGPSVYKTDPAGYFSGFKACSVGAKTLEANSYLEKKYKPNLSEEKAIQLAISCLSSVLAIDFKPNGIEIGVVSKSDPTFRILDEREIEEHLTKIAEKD
T1 sequence (P40301 whole entry): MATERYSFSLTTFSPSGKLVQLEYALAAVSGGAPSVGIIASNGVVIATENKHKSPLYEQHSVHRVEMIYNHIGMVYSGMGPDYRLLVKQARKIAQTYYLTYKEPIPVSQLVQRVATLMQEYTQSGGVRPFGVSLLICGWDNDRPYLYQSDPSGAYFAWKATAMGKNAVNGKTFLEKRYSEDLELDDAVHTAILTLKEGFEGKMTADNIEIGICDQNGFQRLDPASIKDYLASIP

Structure (SMILES)	proteasome activity in flies [1]	activation of 26S proteasome (in words) (human 26S proteasome)	enhanced activation with Rpt tails [2]	competition with Rpt tail peptides [2]
N=C(N)NCCCC(NC(=O)CN)C(=O)NC(CCCCN)C(=O)NC(CCCCN)C(=O)NC(CCCNC(=N)N)C(=O)NC(CCCNC(=N)N)C(=O)NC(CCC(N)=O)C(=O)N1Cc2ccccc2C[C@H]1C(=O)N1C(C(=O)NC(CCCNC(N)N)C(=O)N2CCCC2C(=O)NC(CO)C(=O)O)CC2CCCCC21 (some centres unmarked) [(5), GRKKRRQ-TOD-RPS]	enhance proteasome activity when fed to flies	strongly activate	enhanced activation in the presence of one of Rpt tails, namely Rpt5 or Rpt6	the Rpt3 peptide (α1/α2 pocket) was its sole competitor; also recorded: competed fairly specifically with Rpt3 tail
NCCCCC(N)C(=O)NC(CCCCN)C(=O)NC(CCCCN)C(=O)Nc1cc(NC(=O)C(CCCCN)NC(=O)C(CCCCN)NC(=O)C(N)CCCCN)cc(C(=O)NC(CCCCN)C(=O)NC(CCCCN)C(=O)NC(CCCCN)C(=O)O)c1 (centres unmarked) [(8)]	enhance proteasome activity when fed to flies	excellent activator	enhanced activation in the presence of one of Rpt tails, namely Rpt5 or Rpt6	weakly negative score for the Rpt2 tail to the presumed major competitor Rpt3
